Columns and labels:
[1] = Fragmentation of pyridine adducts in deuterated aqueous buffer followed by 1H NMR; format: physicochemical
From the text: The fragmentation of cationic adducts was followed by ^1H NMR in deuterated buffer, with the relative concentration of each species established by integration of unique resonances. Each adduct in Table 3 and Table 4 was thus examined in three independent runs. […]

[2] = test system: CHO-K1 cells; format: cell-based; conditions: for concentrations at which nontoxic: Chinese hamster
Method: Approximately 1×10^4 CHO-K1 cells/well were plated in a 96-well plate in 100 μL of complete growth media, and adhered overnight at 37° C. The media was then replaced by 100 μL of polymer or monomer in serum-free media at the indicated concentration. Full media was replenished after 4 or 24 h. Viability was measured by MTT assay, with non-treated cells assigned as 100% viability. The results are plotted in FIGS. 11A-11D and 12A-12H.

[3] = pseudo first order fragmentation at 37° C.
[4] = pseudo first order fragmentation at 50° C., deuterated buffer

Row | SMILES | krel ([1]; 37° C., relative to 5i = 1) | krel ([1]; 50° C., relative to 5e = 1.00) | kfrag [1, 3] | kfrag [1, 4] | concentration up to which no effect (toxicity) [2] [µM] | concentrations at which nontoxic [2]
1 | N#Cc1ccc[n+](C2CCC3SC2CCC3[n+]2cccc(C#N)c2)c1.O=[N+]([O-])[O-].O=[N+]([O-])[O-] (centres unmarked) [Compound 5h, 2,6-di-3-cyanopyridinium-9-thiabicyclo[3.3.1]nonane dinitrate] | 2.1 | 6.68 | (1.14 ± 0.16) × 10^−2 h^−1 | (10.8 ± 0.98) × 10^−2 h^−1 | – | –
2 | COc1cc(Br)c[n+](C2CCC3SC2CCC3[n+]2cc(Br)cc(OC)c2)c1.O=[N+]([O-])[O-].O=[N+]([O-])[O-] (centres unmarked) [Compound 5i, 2,6-di-3-bromo-5-methoxylpyridinium-9-thiabicyclo[3.3.1]nonane dinitrate] | 1 | 4.64 | (0.55 ± 0.04) × 10^−2 h^−1 | (7.51 ± 0.53) × 10^−2 h^−1 | ≥ 500 | –
3 | COC(=O)c1cc[n+](C2CCC3SC2CCC3[n+]2ccc(C(=O)OC)cc2)cc1.O=[N+]([O-])[O-].O=[N+]([O-])[O-] (centres unmarked) [Compound 5c, 2,6-di-4-methoxycarbonylpyridinium-9-thiabicyclo[3.3.1]nonane dinitrate] | 0.3 | 2.25 | (0.16 ± 0.01) × 10^−2 h^−1 | (3.66 ± 0.33) × 10^−2 h^−1 | ≥ 500 | –
4 | O=C(OCCCOC(=O)c1ccncc1)c1ccncc1 [monomer 2c] | – | – | – | – | – | below 500 μM
5 | Brc1cncc(OCCCOc2cncc(Br)c2)c1 [monomer 2i, 1,3-bis((5-bromopyridin-3-yl)oxy)propane] | – | – | – | – | – | below 500 μM
6 | NC(=O)c1cc[n+](C2CCC3SC2CCC3[n+]2ccc(C(N)=O)cc2)cc1.O=[N+]([O-])[O-].O=[N+]([O-])[O-] (centres unmarked) [Compound 5e, 2,6-di-4-carbamylpyridinium-9-thiabicyclo[3.3.1]nonane dinitrate] | – | 1.00 | – | (1.62 ± 0.10) ×10^−2 h^−1 | – | –
7 | NC(=O)c1ccc[n+](C2CCC3SC2CCC3[n+]2cccc(C(N)=O)c2)c1.O=[N+]([O-])[O-].O=[N+]([O-])[O-] (centres unmarked) [Compound 5d, 2,6-di-3-carbamylpyridinium-9-thiabicyclo[3.3.1]nonane dinitrate] | – | 1.95 | – | (3.18 ± 0.32) ×10^−2 h^−1 | – | –
8 | NC(=O)c1cc(Br)c[n+](C2CCC3SC2CCC3[n+]2cc(Br)cc(C(N)=O)c2)c1.O=S(=O)([O-])C(F)(F)F.O=S(=O)([O-])C(F)(F)F (centres unmarked) [Compound 5j, 2,6-di-3-bromo-5-carbamylpyridinium-9-thiabicyclo[3.3.1]nonane ditriflate] | 17 | – | (9.34 ± 0.87) × 10^−2 h^−1 | – | – | –
9 | COC(=O)c1cc(C(=O)OC)c[n+](C2CCC3SC2CCC3[n+]2cc(C(=O)OC)cc(C(=O)OC)c2)c1.O=S(=O)([O-])C(F)(F)F.O=S(=O)([O-])C(F)(F)F (centres unmarked) [Compound 5k, 2,6-di-3,5-dimethoxycarbonylpyridinium-9-thiabicyclo[3.3.1]nonane ditriflate] | 22 | – | (11.9 ± 1.13) × 10^−2 h^−1 | – | – | –
10 | COC(=O)c1ccc[n+](C2CCC3SC2CCC3[n+]2cccc(C(=O)OC)c2)c1.O=[N+]([O-])[O-].O=[N+]([O-])[O-] (centres unmarked) [Compound 5b, 2,6-di-3-methoxycarbonylpyridinium-9-thiabicyclo[3.3.1]nonane dinitrate] | – | 1.86 | – | (3.03 ± 0.38) × 10^−2 h^−1 | – | –
11 | Brc1ccc[n+](C2CCC3SC2CCC3[n+]2cccc(Br)c2)c1.O=[N+]([O-])[O-].O=[N+]([O-])[O-] (centres unmarked) [Compound 5f, 2,6-di-3-bromopyridinium-9-thiabicyclo[3.3.1]nonane dinitrate] | – | 4.05 | – | (6.59 ± 0.58) × 10^−2 h^−1 | – | –
12 | COC(=O)c1cc(Br)c[n+](C2CCC3SC2CCC3[n+]2cc(Br)cc(C(=O)OC)c2)c1.O=S(=O)([O-])C(F)(F)F.O=S(=O)([O-])C(F)(F)F (centres unmarked) [Compound 5l, 2,6-di-3-bromo-5-methoxycarbonylpyridinium-9-thiabicyclo[3.3.1]nonane ditriflate] | 20 | – | (10.9 ± 1.81) × 10^−2 h^−1 | – | – | –
13 | c1cc(CCCc2ccncc2)ccn1 [monomer 2a] | – | – | – | – | – | below 500 μM
14 | FC(F)(F)c1ccc[n+](C2CCC3SC2CCC3[n+]2cccc(C(F)(F)F)c2)c1.O=[N+]([O-])[O-].O=[N+]([O-])[O-] (centres unmarked) [Compound 5g, 2,6-di-3-trifluoromethylpyridinium-9-thiabicyclo[3.3.1]nonane dinitrate] | 11 | 46.2 | (5.87 ± 0.71) × 10^−2 h^−1 | (74.8 ± 5.4) × 10^−2 h^−1 | – | –
